The record followed here is US9080173B2, “Methods and compositions for RNAi-based cancer treatment” (SILENSEED LTD., priority 2012, dated 2015).

For one data set, the system named is Panc1 cells. Briefly: Methylene Blue viability test of transfected Panc1 cells, alone and with Gemzar. Conditions: 72h post-transfection; 1 hr of treatment with 10 μM Gemzar. It is filed as cell-based. How it is done:
FIG. 7. Gemzar® enhances siG12D-DDD effect. Panc1 cells were transfected using Lipofectamine™ with unmodified and modified siG12D and a scrambled (non-targeting) siRNA control molecule or were mock transfected (no siRNA). Cell viability was assessed 72 hrs post-transfection by the Methylene Blue (MB) test. Additional groups were transfected as described above, followed by 1 hr of treatment with 10 μM Gemzar®. The numbers 1-4 in the last column relate to the percent of inhibition of cellular growth, wherein the inhibition seen with the unmodified siRNA was assigned the value of 100%. 4, 3, 2, and 1 refer respectively to 75-100%, 50-75%, 25-50%, and 0-25% of the inhibition seen with the unmodified siRNA.
Experimental procedure: Panc1 cells were transfected using Lipofectamine™ with unmodified and modified siG12D and a scrambled (non-targeting) siRNA control molecule or were mock transfected (no siRNA). Cell viability was assessed 72 hrs post-transfection by the Methylene Blue (MB) test. Additional groups were transfected as described above, followed by 1 hr of treatment with 10 μM Gemzar®. At the exemplary time point of 72h, Gemzar® enhanced the effect of siG12D by nearly 10%. […] Other time points, for example 48h, 72h, 96h and 120h, may be utilized in additional studies.

The next data set concerns Panc1-LUC tumors. Kind of data set: Survival of SCIDbg mice with s.c. Panc1-LUC tumors. It is filed as in vivo. As to conditions: 4 μg siG12D in 200 μl PBS i.p. weekly; over 41 days. On the procedure:
Mice were injected s.c. with 10×10^6 Panc1-LUC tumor cells in a total volume of 100 μl PBS, or into the tail of the pancreas with 10^6 cells in a total volume of 30 μl PBS.
In another experiment, 30 SCIDbg mice were injected s.c. with Panc1-LUC tumor cells, and were divided into 4 groups: (a) siG12D-DDD (12 μg siG12D per DDD)—2 DDD placed in each mouse; (b) empty DDD—2 DDD placed in each mouse; (c) 4 μg siG12D in 200 μl PBS injected intraperitoneally (i.p.) on a weekly basis; and (d) untreated. Tumor development was measured by caliper and Luciferase measurements. […] The difference in survival was statistically significant (p<0.05 compared to the other 3 groups).

d = 2'-deoxy (DNA); r = 2'-OH (RNA)

Regarding “sense GUUGGAGCUGAUGGCGUAGdTdT (SEQ ID No: 41), antisense CUACGCCAUCAGCUCCAACdTdT (SEQ ID No: 42) (sense GUUGGAGCUGAUGGCGUAGTT; antisense CUACGCCAUCAGCUCCAACTT; sugars from the 5' end r19 d2, backbone not given here) [siG12D, unmodified siRNA against G12D-mutated K-ras]”, the “enhancement of the effect of siG12D on cell viability by Gemzar” value in the data set on Panc1 cells was about 10%. Moreover, the survival rate in the data set with Panc1-LUC tumors came out at 33.33%.
